Each compound was assayed on polyglutamine-induced caspase-3 activation, cell assay (assay: polyglutamine-triggered caspase-3 activation inhibitors, cell-based (AID 1583)).

| Structure (SMILES) | EC50 [nM] |
| --- | --- |
| C[C@H]1O[C@@H](O[C@H]2[C@@H](O)C[C@H](O[C@H]3[C@@H](O)C[C@H](O[C@H]4CC[C@]5(C)C6CC[C@]7(C)[C@@H](C8=CC(=O)OC8)CC[C@]7(O)C6CC[C@@H]5C4)O[C@@H]3C)O[C@@H]2C)C[C@H](O)[C@@H]1O (some centres undefined) | 189 |
| CC(=O)[O][Hg][c]1ccccc1 | 1740 |
| O[N+]1=CC=CCC1=S.On1ccccc1=S.[Zn] | 855 |
| CCCCC(CC)CN=C(N)NC(N)=NCCCCCCN=C(N)NC(N)=NCC(CC)CCCC (centres undefined) | 1670 |
| C[C@@]1(C(=O)O)CC[C@]2(C)CC[C@]3(C)C4=CC=C5C=C(O)C(=O)C=C5[C@]4(C)CC[C@@]3(C)[C@@H]2C1 | 4630 |
| C[C@]12CCC3C(CC[C@]4(O)C[C@@H](O)CC[C@]34C=O)[C@@]1(O)CCC2C1=CC(=O)OC1 (some centres undefined) | 1680 |
| CO[C@H]1[C@H](O)[C@H](O[C@H]2CC[C@]3(C)C4CC[C@]5(C)C(C6=CC(=O)OC6)CC[C@]5(O)C4CC[C@@H]3C2)O[C@@H](C)[C@@H]1O (some centres undefined) | 78.6 |
| CO[C@H]1[C@H](O)[C@@H](O[C@H]2CC[C@]3(C=O)C4CC[C@]5(C)[C@@H](C6=CC(=O)OC6)CC[C@]5(O)C4CC[C@@H]3C2)O[C@@H](C)[C@@H]1O (some centres undefined) | 93.2 |
| CC(=O)O[C@H]1C[C@H](O[C@H]2[C@@H](O)C[C@H](O[C@H]3[C@@H](O)C[C@H](O[C@H]4CC[C@@]5(C)C(CCC6C5C[C@@H](O)[C@]5(C)[C@@H](C7=CC(=O)OC7)CC[C@]65O)C4)O[C@@H]3C)O[C@@H]2C)O[C@H](C)[C@H]1O[C@@H]1O[C@H](CO)[C@@H](O)[C@H](O)[C@H]1O (some centres undefined) | 7470 |
